Values after ≈ are worked out from the molar mass of the structure shown. Read-outs that look alike come from different tables or passages of the source.
Key:
S. aureus Smith [1] = assay: In vivo antibacterial activity, S. aureus Smith infection; settings: Staphylococcus aureus, mice, im just after bacterial challenge, read-out: PD50
Description: (§1) In vivo antibacterial activity was determined against three bacterial infections (S. aureus Smith, E. coli Juhl and P. aeruginosa A9843A) by intramuscular administration to mice just after the bacterial challenge. PD50 values are summarized in Table 3 in comparsion with the MIC values against the corresponding organisms.

E. coli Juhl A15119 = assay: MIC, agar dilution; type: cell-based; settings: Escherichia coli, JUHLA15119, 18 h; E. coli Juhl (Table 3); read-out: MIC
Description: (§2) Minimum inhibitory concentrations (MICs) of the present series of cephalosporins were determined against 32 strains of test organisms by two-fold serial agar dilution method in Mueller-Hinton agar. Geometric means of MICs were calculated against six groups of the test organisms which are classified as follows and summarized in Table 1.
as §1
(§3) Medium; MuellerHinton agar (pH = 7.2)
(§4) Incubation temperature: 32° C., 18 hr
(§5) Inoculum size; 10^6 cells/ml

S. aureus Smith [2] = assay: MIC, agar dilution; type: cell-based; settings: Staphylococcus aureus, 18 h; S. aureus Smith (Table 3); read-out: MIC
Description: as §2, §1, §3, §4, §5

P. aeruginosa A9843A [3] = assay: MIC, agar dilution; type: cell-based; settings: Pseudomonas aeruginosa, A9843A, 18 h
Description: as §2, §1, §3, §4, §5

[4] = test system: Gn-III: Ps. aeruginosa (7); assay: MIC, two-fold serial agar dilution, Gn-III; type: cell-based; settings: Pseudomonas aeruginosa, read-out: Geometric mean of MIC
Description: as §2
Gn-III Ps. aeruginosa (7).

[5] = test system: Gp-Ia: Penicillin(PC)-sensitive S. aureus (5 strains); assay: MIC, two-fold serial agar dilution, Gp-Ia; type: cell-based; settings: Staphylococcus aureus, read-out: Geometric mean of MIC
Description: as §2
Gp-Ia Penicillin(PC)-sensitive S. aureus (5 strains).

[6] = test system: Gn-Ib: Cephalothin(CET)-resistant E. coli (3) and Kl. pneumoniae (2); assay: MIC, two-fold serial agar dilution, Gn-Ib; type: cell-based; settings: Escherichia coli
Description: as §2
Gn-Ib Cephalothin(CET)-resistant E. coli (3) and Kl.

E. coli Juhl = assay: In vivo antibacterial activity, E. coli Juhl infection; settings: Escherichia coli, mice, im just after bacterial challenge, read-out: PD50
Description: as §1

[7] = test system: Gn-Ia: Cephalothin(CET)-sensitive E. coli (2), Kl. pneumoniae (1) and Pr. mirabilis (2); assay: MIC, two-fold serial agar dilution, Gn-Ia; type: cell-based; settings: 5 strains, read-out: Geometric mean of MIC
Description: as §2
Gn-Ia Cephalothin(CET)-sensitive E. coli (2), Kl.
pneumoniae (1) and Pr. mirabilis (2).

P. aeruginosa A9843A [8] = assay: In vivo antibacterial activity, P. aeruginosa A9843A infection; set-up: species or system mice; settings: Pseudomonas aeruginosa, A9843A, in Mus musculus, im, read-out: PD50
Description: as §1

[9] = test system: Gp-Ib: Penicillin(PC)-resistant S. aureus (5); assay: MIC, two-fold serial agar dilution, Gp-Ib; type: cell-based; settings: Staphylococcus aureus, 5 strains, read-out: Geometric mean of MIC
Description: as §2
Gp-Ib Penicillin(PC)-resistant S. aureus (5).

[10] = test system: Gn-II: M.morganii (1), Ent. cloacae (2) and Ser. marcescens (2); assay: MIC, two-fold serial agar dilution, Gn-II; type: cell-based; settings: for MIC: read-out: Geometric mean of MIC; for Geometric mean of MIC: second run
Description: as §2
Gn-II M.morganii (1), Ent. cloacae (2) and Ser.

[11] = read-out: Geometric mean of MIC, Gn-Ib, 5 strains, Mueller-Hinton agar
[12] = read-out: Geometric mean of MIC, second run, Gn-Ib, 5 strains
[13] = Gn-III, 7 strains, Mueller-Hinton agar

SMILES | ED50 (S. aureus Smith [1]) [mg/kg] | MIC (E. coli Juhl A15119) [µg/mL] | MIC (S. aureus Smith [2]) [µg/mL] | MIC (P. aeruginosa A9843A [3]) [µg/mL] | MIC [4] [µg/mL] | MIC ([4]; second run, Gn-III, 7 strains) [µg/mL] | MIC ([5]; Mueller-Hinton agar) [µg/mL] | MIC ([5]; second run) [µg/mL] | MIC [6, 11] [µg/mL] | MIC [6, 12] [µg/mL] | ED50 (E. coli Juhl) [mg/kg] | MIC ([7]; Mueller-Hinton agar) [µg/mL] | MIC ([7]; second run) [µg/mL] | ED50 (P. aeruginosa A9843A [8]) [mg/kg] | MIC ([9]; Mueller-Hinton agar) [µg/mL] | MIC ([9]; second run) [µg/mL] | MIC [10] [µg/mL] | Geometric mean of MIC ([10]; Gn-II, 5 strains) [µg/mL] | MIC [4, 13] [µg/mL] | MIC ([10]; Gn-II, 5 strains, Mueller-Hinton agar) [µg/mL]
CC(C)(O/N=C(\C(=O)NC1C(=O)N2C(C(=O)O)=C(/C=C/Cn3ccc4cc(=O)c(O)cc-4c3)CS[C@H]12)c1csc(N)n1)C(=O)O (stereo partly drawn) [Iv, 7-[(Z)-2-(2-Aminothiazol-4-yl)-2-(1-carboxy-1-methylethoxyimino)acetamido]-3-[(E)-3-(2,6-dihydro-7-hydroxy-6-oxo-isoquinolin-2-yl)-1-propen-1-yl]-3-cephem-4-carboxylic acid] | 0.98 | 0.1 (≈ 0.153 µM) | 12.5 (≈ 19.1 µM) | 0.1 (≈ 0.153 µM) | 0.11 (≈ 0.168 µM) | 0.15 (≈ 0.229 µM) | 12.5 (≈ 19.1 µM) | 16 (≈ 24.4 µM) | 0.0072 (≈ 0.011 µM) | 0.0083 (≈ 0.0127 µM) | 0.019 | 0.017 (≈ 0.026 µM) | 0.0094 (≈ 0.0144 µM) | 0.17 | 16 (≈ 24.4 µM) | 16 (≈ 24.4 µM) | 0.076 (≈ 0.116 µM) | 0.076 |  | 
CC(C)(O/N=C(\C(=O)NC1C(=O)N2C(C(=O)[O-])=C(/C=C/C[N+]3(C)Cc4cc(O)c(O)cc4C3)CSC12)c1csc(N)n1)C(=O)O (stereo not drawn) [Compound Ia, 7-[(Z)-2-(2-Aminothiazol-4-yl)-2-(1-carboxy-1-methylethoxy-imino)acetamido]-3-[(E)-3-(5,6-dihydroxy-2-methyl-2-iso-indolinio)-1-propen-1-yl]-3-cephem-4-carboxylate] | 0.86 | 0.8 (≈ 1.21 µM) | 12.5 (≈ 19 µM) | 1.6 (≈ 2.43 µM) |  | 0.33 (≈ 0.501 µM) | 12.5 (≈ 19 µM) | 13 (≈ 19.7 µM) | 0.23 (≈ 0.349 µM) | 0.23 (≈ 0.349 µM) | 0.008 | 0.2 (≈ 0.304 µM) | 0.23 (≈ 0.349 µM) | 2 | 12.5 (≈ 19 µM) | 13 (≈ 19.7 µM) | 0.69 (≈ 1.05 µM) | 0.69 | 1.3 (≈ 1.97 µM) | 
CO/N=C(\C(=O)NC1C(=O)N2C(C(=O)[O-])=C(/C=C\C[N+]3(C)Cc4cc(O)c(O)cc4C3)CS[C@H]12)c1csc(N)n1 (stereo partly drawn) [Compound Ie, 7-[(Z)-2-(2-amino-thiazol-4-yl)-2-methoxyiminoacetamido]-3-[(Z)-3-(5,6-dihydroxy-2-methyl-2-isoindolinio)-1-propen-1-yl]-3-cephem-4-carboxylate] | 0.72 | 0.2 (≈ 0.341 µM) | 6.3 (≈ 10.7 µM) | 3.1 (≈ 5.28 µM) |  |  | 4.7 (≈ 8.01 µM) |  | 0.26 (≈ 0.443 µM) |  | 0.025 | 0.13 (≈ 0.222 µM) |  | 9.9 | 6.3 (≈ 10.7 µM) |  |  |  | 2.9 (≈ 4.94 µM) | 0.91 (≈ 1.55 µM)
CC(C)(O/N=C(\C(=O)NC1C(=O)N2C(C(=O)[O-])=C(/C=C\C[N+]3(C)Cc4cc(O)c(O)cc4C3)CS[C@H]12)c1csc(N)n1)C(=O)O (stereo partly drawn) [Compound Ib, 7-[(Z)-2-(2-aminothiazol-4-yl)-2-(1-carboxy-1-methylethoxy-imino)acetamido]-3-[(Z)-3-(5,6-dihydroxy-2-methyl-2-isoindolinio)-1-propen-1-yl]-3-cephem-4-carboxylate] | 3.8 | 0.8 (≈ 1.21 µM) | 25 (≈ 38 µM) | 1.6 (≈ 2.43 µM) |  |  | 25 (≈ 38 µM) |  | 0.26 (≈ 0.395 µM) |  | 0.1 | 0.46 (≈ 0.698 µM) |  | 2 | 50 (≈ 75.9 µM) |  | 0.91 (≈ 1.38 µM) |  | 1.4 (≈ 2.13 µM) | 
CO/N=C(\C(=O)NC1C(=O)N2C(C(=O)[O-])=C(/C=C/C[N+]3(C)Cc4cc(O)c(O)cc4C3)CS[C@H]12)c1csc(N)n1 (stereo partly drawn) [Compound Id, 7-[(Z)-2-(2-aminothiazol-4-yl)-2-methoxyiminoacetamido]-3-[(E)-3-(5,6-dihydroxy-2-methyl-2-isoindolinio)-1-propen-1-yl]-3-cephem-4-carboxylate] | 0.33 | 0.4 (≈ 0.682 µM) | 1.6 (≈ 2.73 µM) | 3.1 (≈ 5.28 µM) |  |  | 1.6 (≈ 2.73 µM) |  | 0.46 (≈ 0.784 µM) |  | 0.012 | 0.15 (≈ 0.256 µM) |  | 6.8 | 3.1 (≈ 5.28 µM) |  | 0.79 (≈ 1.35 µM) |  | 2.6 (≈ 4.43 µM) | 

Reference: US5126336A, “Antibiotic C-3 catechol-substituted cephalosporin compounds, compositions and method of use thereof” (Bristol-Myers Squibb Company, priority 1990, dated 1992)
